# Molecular target: T1, human kinase Mps-1 (Homo sapiens, UniProt P33981)
# T1 construct: N-terminally GST-tagged human full length recombinant Mps-1 kinase; GST (N); purchased Invitrogen, Karslruhe, Germany PV4071
# T1 sequence (P33981 1-857): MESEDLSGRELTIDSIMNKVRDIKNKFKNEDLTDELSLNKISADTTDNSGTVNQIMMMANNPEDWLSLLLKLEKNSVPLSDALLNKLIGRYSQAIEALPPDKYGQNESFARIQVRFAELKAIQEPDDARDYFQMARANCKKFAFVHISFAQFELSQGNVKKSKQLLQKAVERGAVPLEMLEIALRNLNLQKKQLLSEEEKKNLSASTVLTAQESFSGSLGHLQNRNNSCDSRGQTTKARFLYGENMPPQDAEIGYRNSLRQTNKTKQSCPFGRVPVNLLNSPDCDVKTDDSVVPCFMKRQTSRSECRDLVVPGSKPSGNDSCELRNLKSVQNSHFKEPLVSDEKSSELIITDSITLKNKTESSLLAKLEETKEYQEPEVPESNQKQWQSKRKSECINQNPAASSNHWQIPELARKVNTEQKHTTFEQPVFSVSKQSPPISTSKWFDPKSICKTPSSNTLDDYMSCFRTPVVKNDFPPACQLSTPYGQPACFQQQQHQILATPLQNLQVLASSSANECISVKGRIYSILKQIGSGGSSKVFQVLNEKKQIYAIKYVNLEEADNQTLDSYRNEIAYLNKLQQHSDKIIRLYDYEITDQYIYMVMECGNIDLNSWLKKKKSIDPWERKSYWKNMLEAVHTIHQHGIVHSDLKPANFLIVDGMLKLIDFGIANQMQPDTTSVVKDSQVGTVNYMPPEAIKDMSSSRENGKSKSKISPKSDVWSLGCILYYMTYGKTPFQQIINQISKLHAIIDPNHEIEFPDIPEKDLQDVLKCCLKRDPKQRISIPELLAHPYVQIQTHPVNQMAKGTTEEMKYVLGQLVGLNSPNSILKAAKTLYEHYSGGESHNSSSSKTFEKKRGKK
# Assay: Mps-1 kinase assay (TR-FRET)
# Type: biochemical
# Details: N-terminally GST-tagged human full length recombinant Mps-1; 10 μM ATP; 1 μM peptide substrate; 15 min pre-incubation; 60 min at 22° C.
# Method: The human kinase Mps-1 phosphorylates a biotinylated substrate peptide. Detection of the phosphorylated product is achieved by time-resolved fluorescence resonance energy transfer (TR-FRET) from Europium-labelled anti-phospho-Serine/Threonine antibody as donor to streptavidin labelled with cross-linked allophycocyanin (SA-XLent) as acceptor. Compounds are tested for their inhibition of the kinase activity.
# N-terminally GST-tagged human full length recombinant Mps-1 kinase (purchased from Invitrogen, Karslruhe, Germany, cat. no PV4071) was used. As substrate for the kinase reaction a biotinylated peptide of the amino-acid sequence […] (C-terminus in amide form, purchased from Biosynthan GmbH, Berlin) was used.
# The concentration of Mps-1 in the assay was adjusted to the activity of the enzyme lot and was chosen appropriate to have the assay in the linear range, typical enzyme concentrations were in the range of about 1 nM (final conc. in the 5 μl assay volume).
# The resulting mixture was incubated 1 h at 22° C. to allow the binding of the phosphorylated peptide to the anti-phospho(Ser/Thr)-Europium-antibody. Subsequently the amount of phosphorylated substrate was evaluated by measurement of the resonance energy transfer from the Europium-labelled anti-phospho(Ser/Thr) antibody to the Streptavidin-XLent. Therefore, the fluorescence emissions at 620 nm and 665 nm after excitation at 350 nm was measured in a Viewlux TR-FRET reader (PerkinElmer LAS, Rodgau-Jügesheim, Germany). The “blank-corrected normalized ratio” (a Viewlux specific readout, similar to the traditional ratio of the emissions at 665 nm and at 622 nm, in which blank and Eu-donor crosstalk are subtracted from the 665 nm signal before the ratio is calculated) was taken as the measure for the amount of phosphorylated substrate.
row,IC50 [nM],SMILES
1,78.3,"CN(C)c1ccc(-c2cn3c(-c4ccc(C(=O)NC5CC5)c(Cl)c4)cnc3c(NCC3CCCO3)n2)cc1 (centres unmarked) [Example 1-105, 2-chloro-N-cyclopropyl-4-{6-[4-(dimethylamino)phenyl]-8-[(tetrahydro-furan-2-ylmethyl)amino]imidazo[1,2-a]pyrazin-3-yl}benzamide]"
2,6.2,"O=C(NC1CC1)c1ccc(-c2cnc3c(NCC4CCCCC4)nc(-c4ccccc4)cn23)cc1 [Example 2-66, 4-{8-[(Cyclohexylmethyl)amino]-6-phenylimidazo[1,2-a]pyrazin-3-yl}-N-cyclopropylbenzamide]"
3,2.3,"COC(=O)CCNc1nc(-c2ccccc2)cn2c(-c3ccc(C(=O)NC4CC4)cc3)cnc12 [Example 2-33, methyl N-{3-[4-(cyclopropylcarbamoyl)phenyl]-6-phenylimidazo[1,2-a]pyrazin-8-yl}-beta-alaninate]"
4,2.9,"O=C(NC1CC1)c1ccc(-c2cnc3c(NCc4ccc(F)cc4)nc(-c4ccccc4)cn23)cc1 [Example 2-14, N-cyclopropyl-4-{8-[(4-fluorobenzyl)amino]-6-phenylimidazo[1,2-a]pyrazin-3-yl}benzamide]"
5,2.1,"CC(C)CNc1nc(-c2ccc(C#N)cc2)cn2c(-c3ccc(C(=O)NC4CC4)cc3)cnc12 [Example 1-73, 4-{6-(4-cyanophenyl)-8-[(2-methylpropyl)amino]imidazo[1,2-a]pyrazin-3-yl}-N-cyclo-propylbenzamide]"
6,1.6,"NCCCCCCNc1nc(-c2ccccc2)cn2c(-c3ccc(C(=O)NC4CC4)cc3)cnc12 [Example 2-84, 4-{8-[(6-Aminohexyl)amino]-6-phenylimidazo[1,2-a]pyrazin-3-yl}-N-cyclopropylbenzamide]"
7,11.2,"CC(=O)Nc1ccccc1-c1cn2c(-c3ccc(C(=O)NC4CC4)cc3)cnc2c(NCC(C)C)n1 [Example 1-14, 4-{6-[2-(acetylamino)phenyl]-8-[(2-methyl-propyl)amino]imidazo [1,2-a]pyrazin-3-yl}-N-cyclopropylbenzamide]"
8,1.6,"CC(C)CNc1nc(-c2ccc(N3CCN(C)CC3)cc2)cn2c(-c3ccc(C(=O)NC4CC4)cc3)cnc12 [Example 1-90, N-cyclopropyl-4-{6-[4-(4-methylpiperazin-1-yl)phenyl]-8-[(2-methyl-propyl)amino]imidazo [1,2-a]pyrazin-3-yl} benzamide]"
9,16.6,"CN1CCCC1CCNc1nc(-c2ccccc2)cn2c(-c3ccc(C(=O)NC4CC4)cc3)cnc12 (centres unmarked) [Example 2-10, N-cyclopropyl-4-(8-{[2-(1-methylpyrrolidin-2-yl)ethyl]amino}-6-phenylimidazo[1,2-a]pyrazin-3-yl)benzamide]"
10,3.2,"O=C(NC1CC1)c1ccc(-c2cnc3c(NCc4ccco4)nc(-c4ccccc4)cn23)cc1 [Example 2-75, N-cyclopropyl-4-{8-[(2-furylmethyl)amino]-6-phenylimidazo[1,2-a]pyrazin-3-yl}benzamide]"
11,3.3,"CCNc1nc(-c2ccccc2)cn2c(-c3ccc(C(=O)NC4CC4)cc3)cnc12 [Example 2-16, N-cyclopropyl-4-[8-(ethylamino)-6-phenylimidazo [1,2-a]pyrazin-3-yl]benzamide]"
12,3.7,"O=C(NC1CC1)c1ccc(-c2cnc3c(NCc4ccsc4)nc(-c4ccccc4)cn23)cc1 [Example 2-74, N-cyclopropyl-4-{6-phenyl-8-[(3-thienylmethyl)amino]imidazo[1,2-a]pyrazin-3-yl}benzamide]"
13,26.2,"CC(C)CNc1nc(-c2ccccc2)c(Br)n2c(-c3ccc(C(=O)NC4CC4)cc3)cnc12 [Example 4-1, 4-{5-bromo-8-[(2-methylpropyl)amino]-6-phenylimidazo[1,2-a]pyrazin-3-yl}-N-cyclopropylbenzamide]"
14,31.1,"CN(C)c1ccc(-c2cn3c(-c4ccc(C(=O)NC5CC5)c(Cl)c4)cnc3c(NCC(C)(C)O)n2)cc1 [Example 1-99, 2-chloro-N-cyclopropyl-4-{6-[4-(dimethylamino)phenyl]-8-[(2-hydroxy-2-methylpropyl)amino]imidazo[1,2-a]pyrazin-3-yl}benzamide]"
15,8.4,"Cc1cc(-c2cn3c(-c4ccc(C(=O)NC5CC5)cc4)cnc3c(NCC(C)(C)O)n2)ccc1F [Example 1-135, N-cyclopropyl-4-{6-(4-fluoro-3-methylphenyl)-8-[(2-hydroxy-2-methylpropyl)amino]imidazo [1,2-a]pyrazin-3-yl} benzamide]"
16,22.6,"CC(C)CNc1nc(-c2ccc(Cl)c(Cl)c2)cn2c(-c3ccc(C(=O)NC4CC4)cc3)cnc12 [Example 1-45, N-cyclopropyl-4-{6-(3,4-dichlorophenyl)-8-[(2-methylpropyl)amino]imidazo[1,2-a]pyrazin-3-yl}benzamide]"
17,3.4,"C[S+]([O-])CCNc1nc(-c2ccccc2)cn2c(-c3ccc(C(=O)NC4CC4)cc3)cnc12 (centres unmarked) [Example 2-48, N-cyclopropyl-4-(8-{[2-(methylsulfinyl)ethyl]amino}-6-phenylimidazo[1,2-a]pyrazin-3-yl)benzamide]"
18,19.9,"CC(C)CNc1nc(-c2cccc(-c3ccccc3)c2)cn2c(-c3ccc(C(=O)NC4CC4)cc3)cnc12 [Example 1-69, 4-{6-(biphenyl-3-yl)-8-[(2-methylpropyl)amino]imidazo[1,2-a]pyrazin-3-yl}-N-cyclopropyl-benzamide]"
19,75.4,"CC(C)CNc1nc(-c2ccc(C(C)(C)C)cc2)cn2c(-c3ccc(C(=O)NC4CC4)cc3)cnc12 [Example 1-50, 4-{6-(4-tert-butylphenyl)-8-[(2-methylpropyl)amino]imidazo[1,2-a]pyrazin-3-yl}-N-cyclo-propylbenzamide]"
20,2,"CC(C)CNc1nc(-c2ccc(N3CCNCC3)cc2)cn2c(-c3ccc(C(=O)NC4CC4)cc3)cnc12 [Example 1-89, N-cyclopropyl-4-{8-[(2-methylpropyl)amino]-6-[4-(piperazin-1-yl)phenyl]imidazo[1,2-a]pyrazin-3-yl}benzamide]"
21,1.8,"CC(C)CNc1nc(-c2cccc(NS(C)(=O)=O)c2)cn2c(-c3ccc(C(=O)NC4CC4)cc3)cnc12 [Example 1-15, N-cyclopropyl-4-(8-[(2-methylpropyl)amino]-6-{3-[(methylsulfonyl)amino]phenyl}imidazo [1,2-a]pyrazin-3-yl) benzamide]"
22,7.2,NCCCCNc1nc(-c2ccccc2)cn2c(-c3ccc(C(=O)NC4CC4)cc3)cnc12 [Example 2-67]
23,31.8,"CC(C)CNc1nc(-c2ccc(C3CC3)cc2)cn2c(-c3ccc(C(=O)NC4CC4)cc3)cnc12 [Example 7-1, N-cyclopropyl-4-[6-(4-cyclopropylphenyl)-8-(isobutylamino)imidazo[1,2-a]pyrazin-3-yl]benzamide]"
24,6.7,"COc1ccc(-c2cn3c(-c4ccc(C(=O)NC5CC5)cc4)cnc3c(NCC(C)C)n2)cc1F [Example 1-62, N-cyclopropyl-4-{6-(3-fluoro-4-methoxyphenyl)-8-[(2-methylpropyl)amino]imidazo[1,2-a]pyrazin-3-yl}benzamide]"
25,2.8,"O=C(NC1CC1)c1ccc(-c2cnc3c(NCC(F)(F)F)nc(-c4ccccc4)cn23)cc1 [Example 2-85, N-cyclopropyl-4-{6-phenyl-8-[(2,2,2-trifluoroethyl)amino]imidazo[1,2-a]pyrazin-3-yl}benzamide]"
26,18.4,"CC(C)CNc1nc(-c2ccc3c(c2)OCCO3)cn2c(-c3ccc(C(=O)NC4CC4)cc3)cnc12 [Example 1-3, N-cyclopropyl-4-{6-(2,3-dihydro-1,4-benzodioxin-6-yl)-8-[(2-methyl-propyl)amino]imidazo [1,2-a]pyrazin-3-yl} benzamide]"
